Laboratory results from US20220168307A1, “TREATMENT OF SMA” (Hoffmann-La Roche Inc., priority 2019, published 2022).

Columns and labels:
[1] = urine; cited from earlier work
CYP2B6 = molecular target: T1, CYP2B6 (Homo sapiens, UniProt P20813); assay: biochemical
T1 sequence (P20813 1-491): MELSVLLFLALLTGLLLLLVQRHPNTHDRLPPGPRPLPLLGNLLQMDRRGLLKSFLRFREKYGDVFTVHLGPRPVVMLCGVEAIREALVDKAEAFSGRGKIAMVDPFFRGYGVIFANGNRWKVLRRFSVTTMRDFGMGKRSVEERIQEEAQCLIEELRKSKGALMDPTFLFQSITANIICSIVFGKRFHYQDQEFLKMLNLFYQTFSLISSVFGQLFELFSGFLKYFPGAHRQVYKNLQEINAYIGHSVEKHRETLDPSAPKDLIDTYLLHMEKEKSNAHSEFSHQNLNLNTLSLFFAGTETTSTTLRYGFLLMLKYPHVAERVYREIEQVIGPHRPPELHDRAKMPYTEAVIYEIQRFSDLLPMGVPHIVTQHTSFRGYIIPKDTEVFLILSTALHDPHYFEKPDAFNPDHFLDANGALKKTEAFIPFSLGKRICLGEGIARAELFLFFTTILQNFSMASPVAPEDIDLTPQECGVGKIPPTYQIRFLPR

CYP2C8 = molecular target: T2, CYP2C8 (Homo sapiens, UniProt P10632); assay: Time-dependent inhibition (IC50 shift) of CYP2C8 in human liver microsomes; settings: microsomes
T2 sequence (P10632 1-490): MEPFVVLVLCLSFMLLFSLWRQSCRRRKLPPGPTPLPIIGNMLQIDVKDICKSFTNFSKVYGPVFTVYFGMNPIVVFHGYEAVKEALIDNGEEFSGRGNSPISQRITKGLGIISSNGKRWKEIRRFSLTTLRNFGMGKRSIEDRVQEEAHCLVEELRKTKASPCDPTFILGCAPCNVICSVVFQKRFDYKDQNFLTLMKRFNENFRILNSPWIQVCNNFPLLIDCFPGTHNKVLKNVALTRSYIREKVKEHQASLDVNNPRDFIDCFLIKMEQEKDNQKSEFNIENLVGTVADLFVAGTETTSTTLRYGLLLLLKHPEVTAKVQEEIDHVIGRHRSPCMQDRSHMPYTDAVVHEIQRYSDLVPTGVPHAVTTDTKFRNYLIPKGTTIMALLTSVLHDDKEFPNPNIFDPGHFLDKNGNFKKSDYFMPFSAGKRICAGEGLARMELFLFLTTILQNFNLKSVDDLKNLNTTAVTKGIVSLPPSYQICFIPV
Protocol: Donors CMV negative for serology are unm
All incubations were conducted in duplicate.
% remaining=(C+I/C^−I)*100

SMILES: Cc1ncc2n1-c1ccc(Cl)cc1C(c1ccccc1F)=NC2 [midazolam, 8-chloro-6-(2-fluorophenyl)-1-methyl-4H-imidazo[1,5-a][1,4]]
- dose excreted unchanged [1]: 1%

SMILES: CC(=O)N1CCN(c2ccc(OCC3COC(Cn4ccnc4)(c4ccc(Cl)cc4Cl)O3)cc2)CC1 (stereo not drawn) [Ketoconazole, reference compound]
- IC50 (CYP2B6): 3400 nM

SMILES: Cc1ccc(C)c(OCCCC(C)(C)C(=O)O[C@@H]2O[C@H](C(=O)O)[C@@H](O)[C@H](O)[C@H]2O)c1 [Gemfibrozil glucuronide, reference compound]
- IC50 (CYP2C8): 760 nM
